Each structure is given as a SMILES string.

Experimental findings from patent publication US10717716B2, “1,3,4-oxadiazole derivative compounds as histone deacetylase 6 inhibitor, and the pharmaceutical composition comprising the same” (Chong Kun Dang Pharmaceutical Corp., priority 2015, dated 2020) are described below.

For the experiment, the target named is T1, human recombinant HDAC6 (Homo sapiens, UniProt Q9UBN7).
T1 construct: purchased Calbiochem 382180
T1 sequence (Q9UBN7 1-1215): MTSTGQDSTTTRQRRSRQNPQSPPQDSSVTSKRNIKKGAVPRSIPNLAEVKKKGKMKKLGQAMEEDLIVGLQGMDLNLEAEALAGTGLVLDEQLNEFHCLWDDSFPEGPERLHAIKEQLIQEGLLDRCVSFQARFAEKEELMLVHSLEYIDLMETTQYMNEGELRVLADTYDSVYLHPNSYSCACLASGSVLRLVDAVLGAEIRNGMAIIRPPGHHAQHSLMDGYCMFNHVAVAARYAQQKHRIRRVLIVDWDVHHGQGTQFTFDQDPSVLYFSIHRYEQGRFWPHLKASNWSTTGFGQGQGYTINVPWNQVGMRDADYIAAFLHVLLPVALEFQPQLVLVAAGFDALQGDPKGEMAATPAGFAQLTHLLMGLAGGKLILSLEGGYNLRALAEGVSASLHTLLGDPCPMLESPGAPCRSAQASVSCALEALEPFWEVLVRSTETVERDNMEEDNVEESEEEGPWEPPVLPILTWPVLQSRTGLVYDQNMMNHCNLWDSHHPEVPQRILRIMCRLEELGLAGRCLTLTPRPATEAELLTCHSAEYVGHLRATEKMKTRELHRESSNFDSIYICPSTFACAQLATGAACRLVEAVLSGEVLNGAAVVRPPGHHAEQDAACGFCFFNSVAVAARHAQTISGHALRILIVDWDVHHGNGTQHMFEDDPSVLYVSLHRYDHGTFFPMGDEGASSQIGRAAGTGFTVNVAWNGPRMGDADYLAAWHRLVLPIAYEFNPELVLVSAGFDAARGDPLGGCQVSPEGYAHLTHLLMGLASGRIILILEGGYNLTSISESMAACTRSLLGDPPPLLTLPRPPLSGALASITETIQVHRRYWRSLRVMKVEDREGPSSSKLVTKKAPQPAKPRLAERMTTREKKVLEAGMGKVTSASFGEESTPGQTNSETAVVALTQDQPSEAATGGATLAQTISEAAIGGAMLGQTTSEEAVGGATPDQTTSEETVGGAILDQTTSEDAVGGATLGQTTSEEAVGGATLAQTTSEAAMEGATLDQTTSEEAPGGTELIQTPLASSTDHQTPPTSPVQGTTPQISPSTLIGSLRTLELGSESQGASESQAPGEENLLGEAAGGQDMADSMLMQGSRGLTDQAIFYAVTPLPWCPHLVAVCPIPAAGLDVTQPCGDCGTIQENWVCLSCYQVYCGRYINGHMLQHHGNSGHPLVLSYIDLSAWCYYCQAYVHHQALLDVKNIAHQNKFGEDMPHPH
Kind of experiment: HDAC6 enzyme activity inhibition assay (HDAC Fluorimetric Drug Discovery Kit). The class given is biochemical. The note with it: for HDAC6 selectivity (fold): HDAC6 over HDAC1; for IC50: human recombinant HDAC6, same protocol as HDAC1, read-out: HDAC6. The essentials: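 Fluorimetric deacetylase assay: 5-fold serial compound dilutions, 0.3 μg recombinant human enzyme (HDAC1 or HDAC6, same protocol), 10 μM Fluor de Lys-SIRT1 substrate, 60 min at 30 °C. Signal developed 30 min, measured at 360/460 nm; IC50 values derived.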

`Cc1ccccc1N(Cc1ccc(-c2nnc(C(F)F)o2)cc1F)C(=O)N1CCN(C)CC1` [Compound 21469, N-(4-(5-(difluoromethyl)-1,3,4-oxadiazol-2-yl)-2-fluorobenzyl)-4-methyl-N-(o-tolyl)piperazine-1-carboxamide]: the “HDAC6 selectivity (fold)” value worked out at 244 fold and the IC50 was 41 nM.

With `Cc1cccc(N(Cc2ccc(-c3nnc(C(F)F)o3)cc2F)C(=O)N2CCN(C)CC2)c1` [Compound 21470, N-(4-(5-(difluoromethyl)-1,3,4-oxadiazol-2-yl)-2-fluorobenzyl)-4-methyl-N-(m-tolyl)piperazine-1-carboxamide], the “HDAC6 selectivity (fold)” value worked out at 313 fold and the IC50 came out at 32 nM.

In the case of `Cc1ccc(N(Cc2ccc(-c3nnc(C(F)F)o3)cc2F)C(=O)N2CCN(C)CC2)cc1` [Compound 21471, N-(4-(5-(difluoromethyl)-1,3,4-oxadiazol-2-yl)-2-fluorobenzyl)-4-methyl-N-(p-tolyl)piperazine-1-carboxamide], the “HDAC6 selectivity (fold)” value amounted to 213 fold and the IC50 is 47 nM.

`COc1ccccc1N(Cc1ccc(-c2nnc(C(F)F)o2)cc1F)C(=O)N1CCN(C)CC1` [Compound 21472, N-(4-(5-(difluoromethyl)-1,3,4-oxadiazol-2-yl)-2-fluorobenzyl)-N-(2-methoxyphenyl)-4-methylpiperazine-1-carboxamide]: the “HDAC6 selectivity (fold)” value was determined as 217 fold and the IC50 amounted to 46 nM.

On to `COc1cccc(N(Cc2ccc(-c3nnc(C(F)F)o3)cc2F)C(=O)N2CCN(C)CC2)c1` [Compound 21473, N-(4-(5-(difluoromethyl)-1,3,4-oxadiazol-2-yl)-2-fluorobenzyl)-N-(3-methoxyphenyl)-4-methylpiperazine-1-carboxamide], for which the “HDAC6 selectivity (fold)” value amounted to 313 fold and the IC50 is 32 nM.

As for `COc1ccccc1N(Cc1ccc(-c2nnc(C(F)F)o2)cc1)C(=O)N1CCS(=O)(=O)CC1` [Compound 21474, N-(4-(5-(difluoromethyl)-1,3,4-oxadiazol-2-yl)benzyl)-N-(2-methoxyphenyl)thiomorpholine-4-carboxamide 1,1-dioxide], the “HDAC6 selectivity (fold)” value was 77 fold and the IC50 worked out at 130 nM.

Consider `COc1cccc(N(Cc2ccc(-c3nnc(C(F)F)o3)cc2)C(=O)N2CCS(=O)(=O)CC2)c1` [Compound 21475, N-(4-(5-(difluoromethyl)-1,3,4-oxadiazol-2-yl)benzyl)-N-(3-methoxyphenyl)thiomorpholine-4-carboxamide 1,1-dioxide], for which the “HDAC6 selectivity (fold)” value is reported as 145 fold and the IC50 is 69 nM.

Take `Cc1cccc(N(Cc2ccc(-c3nnc(C(F)F)o3)cc2)C(=O)N2CCS(=O)(=O)CC2)c1` [Compound 21476, N-(4-(5-(difluoromethyl)-1,3,4-oxadiazol-2-yl)benzyl)-N-(m-tolyl)thiomorpholine-4-carboxamide 1,1-dioxide]: the “HDAC6 selectivity (fold)” value is recorded as 196 fold and the IC50 stood at 51 nM.

As to `COc1ccc(N(Cc2ccc(-c3nnc(C(F)(F)F)o3)cc2F)C(=O)N2CCS(=O)(=O)CC2)cc1` [Compound 21477, N-(2-fluoro-4-(5-(trifluoromethyl)-1,3,4-oxadiazol-2-yl)benzyl)-N-(4-methoxyphenyl)thiomorpholine-4-carboxamide 1,1-dioxide], the “HDAC6 selectivity (fold)” value is recorded as 137 fold and the IC50 worked out at 73 nM.

For the compound `COc1ccc(N(Cc2ccc(-c3nnc(C(F)F)o3)cc2F)C(=O)N2CCS(=O)(=O)CC2)cc1` [Compound 21478, N-(4-(5-(difluoromethyl)-1,3,4-oxadiazol-2-yl)-2-fluorobenzyl)-N-(4-methoxyphenyl)thiomorpholine-4-carboxamide 1,1-dioxide], the “HDAC6 selectivity (fold)” value was found to be 270 fold and the IC50 worked out at 37 nM.

For the compound `COc1ccccc1N(Cc1ccc(-c2nnc(C(F)(F)F)o2)cc1F)C(=O)N1CCS(=O)(=O)CC1` [Compound 21479, N-(2-fluoro-4-(5-(trifluoromethyl)-1,3,4-oxadiazol-2-yl)benzyl)-N-(2-methoxyphenyl)thiomorpholine-4-carboxamide 1,1-dioxide], the “HDAC6 selectivity (fold)” value came to 167 fold and the IC50 is 60 nM.

As for `COc1ccccc1N(Cc1ccc(-c2nnc(C(F)F)o2)cc1F)C(=O)N1CCS(=O)(=O)CC1` [Compound 21480, N-(4-(5-(difluoromethyl)-1,3,4-Oxadiazol-2-yl)-2-fluorobenzyl)-N-(2-methoxyphenyl)thiomorpholine-4-carboxamide 1,1-dioxide], the “HDAC6 selectivity (fold)” value stood at 204 fold and the IC50 turned out to be 49 nM.

In the case of `COc1cccc(N(Cc2ccc(-c3nnc(C(F)(F)F)o3)cc2F)C(=O)N2CCS(=O)(=O)CC2)c1` [Compound 21481, N-(2-fluoro-4-(5-(trifluoromethyl)-1,3,4-oxadiazol-2-yl)benzyl)-N-(3-methoxyphenyl)thiomorpholine-4-carboxamide 1,1-dioxide], the “HDAC6 selectivity (fold)” value was determined as 172 fold and the IC50 came out at 58 nM.

Turning to `COc1cccc(N(Cc2ccc(-c3nnc(C(F)F)o3)cc2F)C(=O)N2CCS(=O)(=O)CC2)c1` [Compound 21482, N-(4-(5-(difluoromethyl)-1,3,4-oxadiazol-2-yl)-2-fluorobenzyl)-N-(3-methoxyphenyl)thiomorpholine-4-carboxamide 1,1-dioxide], the “HDAC6 selectivity (fold)” value stood at 323 fold and the IC50 was found to be 31 nM.

Turning to `Cc1cccc(N(Cc2ccc(-c3nnc(C(F)(F)F)o3)cc2F)C(=O)N2CCS(=O)(=O)CC2)c1` [Compound 21483, N-(2-fluoro-4-(5-(trifluoromethyl)-1,3,4-oxadiazol-2-yl)benzyl)-N-(m-tolyl)thiomorpholine-4-carboxamide 1,1-dioxide], the “HDAC6 selectivity (fold)” value was found to be 141 fold and the IC50 stood at 71 nM.

In the case of `Cc1cccc(N(Cc2ccc(-c3nnc(C(F)F)o3)cc2F)C(=O)N2CCS(=O)(=O)CC2)c1` [Compound 21484, N-(4-(5-(difluoromethyl)-1,3,4-oxadiazol-2-yl)-2-fluorobenzyl)-N-(m-tolyl)thiomorpholine-4-carboxamide 1,1-dioxide], the “HDAC6 selectivity (fold)” value turned out to be 476 fold and the IC50 is 21 nM.

Regarding `O=C(N1CCS(=O)(=O)CC1)N(Cc1ccc(-c2nnc(C(F)F)o2)cc1)c1ccc(-c2ccccc2)cc1` [Compound 21486, N-([1,1′-biphenyl]-4-yl)-N-(4-(5-(difluoromethyl)-1,3,4-oxadiazol-2-yl)benzyl)thiomorpholine-4-carboxamide 1,1-dioxide], the “HDAC6 selectivity (fold)” value was 120 fold and the IC50 is 83 nM.

For `Cn1ncc2ccc(-c3ccc(N(Cc4ccc(-c5nnc(C(F)F)o5)cc4)C(=O)N4CCS(=O)(=O)CC4)cc3)cc21` [Compound 21488, N-(4-(5-(difluoromethyl)-1,3,4-oxadiazol-2-yl)benzyl)-N-(4-(1-methyl-1H-indazol-6-yl)phenyl)thiomorpholine-4-carboxamide 1,1-dioxide], the “HDAC6 selectivity (fold)” value turned out to be 90 fold and the IC50 amounted to 111 nM.

`O=C(N1CCS(=O)(=O)CC1)N(Cc1ccc(-c2nnc(C(F)F)o2)cc1)c1ccc(-c2cccnc2)cc1` [Compound 21490, N-(4-(5-(difluoromethyl)-1,3,4-oxadiazol-2-yl)benzyl)-N-(4-(pyridin-3-yl)phenyl)thiomorpholine-4-carboxamide 1,1-dioxide]: the “HDAC6 selectivity (fold)” value stood at 270 fold and the IC50 was determined as 37 nM.

On to `O=C(N1CCS(=O)(=O)CC1)N(Cc1ccc(-c2nnc(C(F)F)o2)cc1)c1ccc(-c2ccoc2)cc1` [Compound 21492, N-(4-(5-(difluoromethyl)-1,3,4-oxadiazol-2-yl)benzyl)-N-(4-(furan-3-yl)phenyl)thiomorpholine-4-carboxamide 1,1-dioxide], for which the “HDAC6 selectivity (fold)” value worked out at 278 fold and the IC50 stood at 36 nM.
